According to patent publication US20150198612A1, “Isotopic Labelling of Proteins” (UNIVERSITY OF DUNDEE, priority 2012, published 2015):

Assays:
[1] = test system: drug metabolism related proteins; assay: LC-MS/MS protein expression profile of liver from induced mice (Example 1); format: in vivo; details: wild type mice liver; once daily i.p. for 3 days; TCPOBOP 1 mg/kg; versus corn oil; FIG. 3
Experimental: In order to generate a drug metabolism-enhanced SILAC model, the protein expression profiles of liver from animals induced with TCPOBOP (1 mg/kg) or pregnenolone 16α-carbonitrile (PCN) or vehicle were examined. […] Animals were sacrificed 3 days after dosing, liver tissue excised and snap-frozen in liquid nitrogen for storage at −80° C.
Frozen liver tissue was thawed by addition of 10 volumes SDT lysis buffer (4% SDS, 0.1M DTT, 100 mM Tris-HCl pH 7.6) then homogenised by rotor-stator (2×5 sec at 20 k revolutions). Homogenate was heated to 95° C. for 5 minutes, sonicated (2×5 sec), then centrifuged at 16,000×g for 10 minutes. Supernatant (protein sample for analysis) was removed, aliquoted and stored at −80° C. until use. Protein samples (total of 30 μg/well) were electrophoresed through a 12% bis-tris gel in MOPS running buffer supplemented with antioxidant (all Life Technologies, Paisley, UK) alongside a Spectra multicolour broad range protein ladder (Thermo Fisher Scientific, Waltham, Mass.). Gels were stained with coomassie blue, destained, and then rehydrated with Milli-Q water. […] Peptide sample concentration was determined by Nanodrop (Thermo Fisher Scientific) and adjusted to 0.2 mg/mL in water containing 0.1% (vol/vol) trifluoroacetic acid. […] Data were analysed using SIEVE software in conjunction with Mascot database search engine. […]

Cyp2B10 = assay: SILAM LC-MS/MS quantification of Cyp2B10 in mouse liver (Example 2); details: for L/H ratio of Cyp2B10 peptide NLQELLDYIGHSVEK: mice treated 1 mg/kg
Experimental: This experiment was conducted to test the utility of the drug metabolism-enhanced reference in an actual SILAM protocol in comparison to normal SILAM protocol.
Liver protein extracts from wild type mice treated with TCPOBOP (1 mg/kg) or Ethoxyquin (1 mg/kg) or corn oil (control) were spiked with liver heavy protein extract from normal SILAM mice or drug metabolism pathway-enhanced SILAM mice according to the present invention.

Cyp4a = assay: Western blot of liver drug metabolism enzymes, Cyp4a; details: C57BL/6 mice liver, once daily i.p. for 3 days, single inducer
drug metabolism enzymes = details: mouse, in vivo
[2] = test system: inflammation related proteins; assay: LC-MS/MS of lung proteins after LPS treatment (Example 3); format: in vivo; details: male C57BL/6 mice, single i.p. injection 100 μg, lung 24 hours after dosing
Experimental: Male C57BL/6 mice were given a single intraperitoneal injection of lipopolysaccharide (LPS; 100 μg) or vehicle and tissues were harvested 24 hours after dosing. Lung tissues were lysed in 2% SDS buffer by ultrasonic probe and proteins extracted were resolved onto a SDS-PAGE, followed by a filter assisted trypsin digestion procedure. The protein digests were analysed by LC-MS/MS and the data were analysed using Peaks software for database search and Progenesis for quantification.

Cyp3a = details: mouse, in vivo, ip

Row | Compound | expression of drug metabolism related proteins relative to the total ion current [1] | Cyp2B10 expression relative to Ethoxyquin (Cyp2B10; from L/H ratios, pathway-enhanced SILAM) | levels of the low-abundance cytochrome protein Cyp2B10 (Cyp2B10; general statement) | L/H ratio of Cyp2B10 peptide NLQELLDYIGHSVEK (Cyp2B10; liver extract spiked with drug metabolism pathway-enhanced SILAM heavy liver extract, control L/H=0) | L/H ratio of Cyp2B10 peptide NLQELLDYIGHSVEK (Cyp2B10; liver extract spiked with normal SILAM heavy extract (no heavy peptide signal)) | Cyp4a expression (Cyp4a) | expression of proteins examined (drug metabolism enzymes) | number of inflammation related proteins in the lung that can be quantified using the enhanced SILAM [2] | induction of the lung proteins listed in Table 4 ([2]; versus vehicle) | Cyp3a protein expression (Cyp3a) | change to other Cyp proteins examined (other than Cyp3a) (drug metabolism enzymes; ip)
1 | Clc1cnc(Oc2ccc(Oc3ncc(Cl)cc3Cl)cc2)c(Cl)c1 [TCPOBOP] | significantly increased the expression of many of these proteins | 4 fold | efficiently increase levels | 2.50 | infinite | moderate | enhanced significantly the expression of many proteins examined except for Cyp2e and Homx1 | – | – | – | –
2 | lipopolysaccharide [LPS] | – | – | – | – | – | – | – | more than 100 | more than 5 times | – | –
3 | CC(=O)[C@H]1[C@H](C#N)C[C@H]2[C@@H]3CC=C4C[C@@H](O)CC[C@]4(C)[C@H]3CC[C@@]21C [PCN, pregnenolone 16α-carbonitrile] | to a lesser extent, PCN, significantly increased the expression of many of these proteins | – | – | – | – | – | – | – | – | noticeable | no change
